This note sets out measurements from patent publication US5506354A, “Imidazolylpiperazinyl steroids” (The Upjohn Company, priority 1992, dated 1996).

Structures can show the parent of a compound that is named as a salt.

The first test deals with arachidonic acid. The test can be described thus: Arachidonic Acid Antagonism Assay (AAAA), LD50 of sodium arachidonate. The class given is in vivo, Charles River male CF-1 mice. The note with it: test compound IV 15 min before sodium arachidonate; LD50 outside 95% confidence interval of control. As to the method: Since these metabolites contribute to the pathological problems associated with stroke, spinal trauma and head injury, compounds which antagonize arachidonic acid are useful in treating stroke, spinal trauma and head injury.
While not necessary to determine arachidonic acid antagonism, the above assay has been modified as follows: Charles River male CF-1 mice weighing 18-22 g are treated IV with the test compound dissolved in 1.0% Tween-80 and 0.1% hydrochloric acid in distilled water, 0.2 ml total volume. Fifteen minutes later sodium arachidonate (90% pure) in physiological (normal) saline is injected into the tail vein. The LD50 is measured using the Spearman-Karber method with a log dose interval of 0.05 (N=6). Compounds which elevate the LD50 outside of the 95% confidence interval of the control LD50 are considered to be "active".
Consider `CN1CCN(c2cc(N3CCN(CC(=O)[C@@]4(O)CC[C@H]5[C@@H]6CCC7=CC(=O)CC[C@]7(C)C6=CC[C@@]54C)CC3)nc(N3CCN(C)CC3)n2)CC1` [Example 19, 17α-Hydroxy-21-[4-[2,6-bis(4-methyl-1-piperazinyl)A-pyrimidinyl]-1-piperazinyl]-pregna-4,9(11)-diene-3,20-dione methanesulfonate hydrate], for which the “arachidonic acid antagonism (activity in words)” value (“arachidonic acid antagonism” below) is listed as “demonstrate arachidonic acid antagonism”.

In the case of `COc1cccc(N2CCN(CC(=O)[C@@]3(O)CC[C@H]4[C@@H]5CCC6=CC(=O)CC[C@]6(C)C5=CC[C@@]43C)CC2)n1.CS(=O)(=O)O` [Example 22, 17α-hydroxy-21-[4-(6-methoxy-2-pyridinyl)-1-piperazinyl]pregna-4,9(11)-diene-3,20-dione monomethanesulfonate], the “arachidonic acid antagonism” value is on record as “demonstrate arachidonic acid antagonism”. Same read-out and setting: the value for `C[C@]12C=CC(=O)C=C1CC[C@@H]1[C@@H]2[C@@H](O)C[C@@]2(C)[C@H]1CC[C@]2(O)C(=O)CN1CCN(c2ccccn2)CC1` [Example 25, 11.uparw.,17α-dihydroxy-21-[4-(2-pyridinyl)-1-piperazinyl]pregna-1,4-diene-3,20-dione dihydrochloride] was “demonstrate arachidonic acid antagonism”.

As to `C[C@]12CCC(=O)C=C1CC[C@@H]1[C@@H]2[C@H](O)C[C@@]2(C)[C@H]1CC[C@]2(O)C(=O)CN1CCN(c2ccc(F)cc2)CC1` [Example 29, 21-[4-(4-fluorophenyl)-1-piperazinyl]-11α,17α-dihydroxypregn-4-ene-3,20-dione dihydrochloride], the “arachidonic acid antagonism” value is “demonstrate arachidonic acid antagonism”.

As to `C[C@]12CC(=O)[C@H]3[C@@H](CCC4=CC(=O)CC[C@@]43C)[C@@H]1CC[C@@H]2C(=O)CN1CCN(c2ccccn2)CC1.Cl.O` [Example 45, 21-[4-(2-pyridinyl)-1-piperazinyl]pregn-4-ene-3,11,20-trione hydrochloride hydrate], the “arachidonic acid antagonism” value is given as “demonstrate arachidonic acid antagonism”.

The subject of a further test is angiogenesis. As to the kind of experiment: Chick embryo assay of Folkman (inhibition of angiogenesis / tumor growth). The class given is in vivo. Particulars: 50 μg/10 μl in the presence of heparin. How it is done:
According to this procedure compounds which are considered to be "active" (i.e. antiangiogenic) give an avascular zone of 4 mm or greater in some embryos when tested at 50 μg/10 μl in the presence of 50 μg/10μ of heparin.
For `C[C@]12CCC(=O)C=C1CC[C@@H]1C2=CC[C@@]2(C)[C@H]1CC[C@]2(O)C(=O)CN1CCN(C(=O)c2ccco2)CC1` [Example 6B, 17α-Hydroxy-21-[4-(2-furonylcarbonyl)-1-piperazinyl]pregna-4,9(11)-diene-3,20-dione], the “inhibition of angiogenesis (activity in words)” value (from here on “inhibition of angiogenesis”) was “demonstrate inhibition of angiogenesis”. For the molecule `CCN(CC)c1cc(N2CCN(CC(=O)[C@@]3(O)CC[C@H]4[C@@H]5CCC6=CC(=O)CC[C@]6(C)C5=CC[C@@]43C)CC2)nc(N(CC)CC)n1` [Example 16, 17α-Hydroxy-21-[4-[2,6-bis(diethylamino)pyrimidinyl]-1-piperazinyl]pregna-4,9(11)-diene-3,20-dione dihydrochloride hydrate], the “% of Embryos with 4 mm or Greater Avascular Zone” value (from here on “% of Embryos”) came out at 91%. `C[C@]12CCC(=O)C=C1CC[C@@H]1[C@@H]2C(=O)C[C@@]2(C)[C@H]1CC[C@]2(O)C(=O)CN1CCN(c2ccccn2)CC1` [Example 20]: the “% of Embryos” value is 72% and the “inhibition of angiogenesis” value is “demonstrate inhibition of angiogenesis”. On to `CC(C)(C)CC(=O)O[C@@H]1C[C@@]2(C)[C@@H](CC[C@]2(O)C(=O)CN2CCN(c3ccccn3)CC2)[C@@H]2CCC3=CC(=O)CC[C@]3(C)[C@H]21` [Example 28, 11α,17α-Dihydroxy-21-[4-(2-pyridinyl)-1-piperazinyl]pregn-4-ene-3,20-dione 11-(3,3-dimethyl-1-butyratedihydrochloride], for which the “% of Embryos” value is on record as 73%. Take `COc1ccc(N2CCN(CC(=O)[C@@]3(O)CC[C@H]4[C@@H]5CCC6=CC(=O)CC[C@]6(C)[C@H]5[C@H](OC(=O)CC(C)(C)C)C[C@@]43C)CC2)cc1` [Example 32, 11α,17α-dihydroxy-21-[4-(4-methoxyphenyl)-1-piperazinyl]pregn-4-ene-3,20-dione 11-(3,3-dimethyl-1-butyrate) dihydrochloride]: the “inhibition of angiogenesis” value was “demonstrate inhibition of angiogenesis”. Still for that read-out and setting: the result for `COc1ccc(N2CCN(CC(=O)[C@@]3(O)CC[C@H]4[C@@H]5C[C@H](C)C6=CC(=O)C=C[C@]6(C)[C@H]5[C@@H](O)C[C@@]43C)CC2)cc1` [Example 33, 11β,17α-dihydroxy-21-[4-(4-methoxyphenyl)-1-piperazinyl]-6α-methylpregna-1,4-diene-3,20-dione dihydrochloride] reads “demonstrate inhibition of angiogenesis”; that for `COc1ccc(CCNCC(=O)[C@@]2(O)CC[C@H]3[C@@H]4C[C@H](C)C5=CC(=O)C=C[C@]5(C)[C@H]4[C@@H](O)C[C@@]32C)cc1OC` [Example 34, 11β,17α-dihydroxy-21-[[2-(3,4-dimethoxy-phenyl)ethyl]amino]-6α-methylpregna-1,4-diene-3,20-dione hydrochloride], “demonstrate inhibition of angiogenesis”; that for `C[C@]12C[C@@H](O)[C@H]3[C@@H](CCC4=CC(=O)CC[C@@]43C)[C@@H]1CC[C@@H]2C(=O)CN1CCN(c2ccccn2)CC1.Cl.Cl` [Example 36, 11α-hydroxy-21-[4-(2-pyridinyl)-1-piperazinyl]-pregn-4-ene-3,20-dione dihydrochloride], “demonstrate inhibition of angiogenesis”. On to `C[C@H]1C[C@H]2[C@@H]3CC[C@H]4CC(=O)CC[C@]4(C)C3=CC[C@]2(C)[C@@]1(O)C(=O)CN1CCN(c2ccccn2)CC1.Cl.Cl.O` [Example 44, 17α-hydroxy-16β-methyl-21-[4-(2-pyridinyl)-1-piperazinyl]-5α-pregn-9(11)-ene-3,20-dione dihydrochloride hydrate], for which the “% of Embryos” value amounted to 75%. For `CCN(CC)c1cc(N2CCN(CC(=O)[C@@]3(O)CC[C@H]4[C@@H]5C[C@H](C)C6=CC(=O)C=C[C@]6(C)C5=CC[C@@]43C)CC2)nc(N(CC)CC)n1` [Example 63, 21-[4-[2,6-bis(diethylamino)-4-pyrimidinyl]-1-piperaz-inyl]-17α-hydroxy-6α-methylpregna-1,4,9(11)-triene-3,20-dione (E)-2-butenedioate (1:1) salt], the “inhibition of angiogenesis” value was “demonstrate inhibition of angiogenesis”. On the same count and under the same terms, the result for `C[C@]12CCC(=O)C=C1CC[C@@H]1C2=CC[C@@]2(C)[C@H]1CC[C@]2(O)C(=O)CN1CCN(c2cc(N3CCCC3)nc(N3CCCC3)n2)CC1` [Example 64, 17α-hydroxy-21-[4-[2,6-bis(1-pyrrolidinyl)-4-pyrimidinyl]-1-piperazinyl]-pregna-4,9(11)-diene-3,20-dione (E)-2-butenedioate (1:1) salt] reads “demonstrate inhibition of angiogenesis”; that for `C[C@]12CC[C@@H](O)C[C@H]1CC[C@@H]1[C@@H]2C(=O)C[C@@]2(C)[C@H]1CC[C@]2(O)C(=O)CN1CCN(c2ccccn2)CC1` [Example 99, 3α,17α-dihydroxy-21-[4-(2-pyridinyl)-1-piperazinyl]-5β-pregnane-11,20-dione dihydrochloride hydrate], “demonstrate inhibition of angiogenesis”.
